Data set [1] deals with Cotton rat. Description: Efficacy in cotton rat measured as reduction in log TCID50 of RSV per gram of lung at 0.5 mg/mL. The data set is classed as functional, Sigmodon.
A further data set deals with Mus musculus. Description: Efficacy in BALB/c mouse measured as reduction in log TCID50 of RSV per gram of lung at 120 mg/kg, sc. The data set is classed as functional. The following applies: route subcutaneous.
The subject of data set [2] is Respiratory syncytial virus. Description: Antiviral activity against RSV Long strain in human Hep2 cells. The data set is classed as functional, organism-based. The following applies: HEp-2.
The test system of the next data set is HEp-2. Description: Cytotoxicity against human Hep2 cells infected with RSV Long strain. The data set is classed as functional.
Data set [3] can be described thus: Therapeutic index (CC50/EC50) for RSV infected Hep2 cells. The data set is classed as cell-based, HEp-2. The following applies: human, read-out: Ratio CC50/EC50.
The test system of data set [4] is Cotton rat. Description: Efficacy in cotton rat measured as reduction in log TCID50 of RSV per gram of lung at 1.6 mg/mL. Type of data set: functional, Sigmodon.
Data set [5] relates to Cotton rat. Description: Efficacy in cotton rat measured as reduction in log TCID50 of RSV per gram of lung at 0.2 mg/mL. The data set is classed as functional, Sigmodon.
For data set [6], the system named is Cotton rat. Description: Efficacy in cotton rat measured as reduction in log TCID50 of RSV per gram of lung at 1.0 mg/mL. The data set is classed as functional, Sigmodon.
Data set [7] deals with Cotton rat. Description: Efficacy in cotton rat measured as reduction in log TCID50 of RSV per gram of lung at 2.0 mg/mL. Type of data set: functional, Sigmodon.
The test system of data set [8] is Cotton rat. Description: Efficacy in cotton measured as reduction in log TCID50 of RSV per gram of lung rat at 0.05 mg/mL. The data set is classed as functional, Sigmodon.
Data set [9] concerns Cotton rat. Description: Efficacy in cotton rat measured as reduction in log TCID50 of RSV per gram of lung at 0.01 mg/mL. Type of data set: functional, Sigmodon.
Data set [10] deals with Cotton rat. Description: Efficacy in cotton rat measured as reduction in log TCID50 of RSV per gram of lung at 0.67 mg/mL. Type of data set: functional, Sigmodon.

Consider `CC(C)n1c(=O)n(Cc2nc3ccccc3n2CCc2noc(O)n2)c2ccccc21`, for which the Efficacy amounted to 2.1 with Cotton rat [1] and 2.55 with Mus musculus. Besides, a half-maximal response in data set [2] (EC50) required 21 nM. In addition, in the data set on HEp-2, the CC50 (commonly the concentration giving 50% cytotoxicity) worked out at 75400 nM. Besides, in data set [3], the selectivity ratio worked out at 3540.
Regarding `CC(C)CCn1c(Cn2c(=O)n(Cc3ccccc3S(=O)(=O)O)c3ccccc32)nc2ccccc21`, the Efficacy with Cotton rat [4] amounted to 2.25. Also, in data set [2], the concentration giving a half-maximal response (EC50) – broadly, the concentration needed to bring the measured effect to its halfway point – came to 7 nM. Moreover, the CC50 in the data set with HEp-2 was more than 19000 nM. For the same compound, the selectivity ratio in data set [3] was more than 2710.
With `CC(C)CCn1c(Cn2c(=O)n(Cc3ccc(Cn4c(=O)ccn(CC(=O)N[C@@H](CC(=O)O)C(=O)O)c4=O)cc3)c3ccccc32)nc2ccccc21`, the results for the Efficacy with Cotton rat [5] and with Cotton rat [6] were 3.22 and 1.83, respectively. In [2], this compound came in with an EC50 of 8 nM. For the same compound, the cytotoxic concentration (CC50) in the data set on HEp-2 is more than 106000 nM. Further, in data set [3], the selectivity ratio was more than 13200.
Turning to `CC(C)CCn1c(Cn2c(=O)n(Cc3ccc(P(=O)(O)O)cc3)c3ccccc32)nc2ccccc21`, the Efficacy is 2.1 with Cotton rat [7], 3.5 in the data set on Cotton rat [5], 4 with Cotton rat [8] and 4.4 with Cotton rat [9]. For the same compound, it took 27 nM to reach a half-maximal effect in [2] (EC50). The same compound showed a CC50 in the data set on HEp-2 of more than 175000 nM. Besides, the selectivity ratio in data set [3] is 3000.
As for `O=C(O)c1ccc(Cn2c(=O)n(Cc3nc4ccccc4[nH]3)c3ccccc32)cc1`, the Efficacy in the data set on Cotton rat [10] is recorded as 3.6. The same compound had an EC50 in data set [2] of 14 nM. Further, in the data set on HEp-2, the CC50 amounted to 75500 nM. Also, the selectivity ratio in [3] was 5400.
